Laboratory results published in patent US11891634B2, “PDE5A destabilizing domains” (The Board of Trustees of the Leland Stanford Junior …, priority 2017, dated 2024).

Key:
[1] = tested on: NIH3T3 cells expressing AcGFP-PDE5A fusions; experiment: FACS analysis of C-terminal PDE5A mutants (AcGFP-PDE5A fusions), Sildenafil vs vehicle; format: cell-based, mouse; settings: Table 2, 24 hours; for Mean Fluorescence intensity: NIH3T3; for Stabilization ratio: fold change in GFP intensity, Sildenafil 10 μM vs vehicle alone
Procedure: (§1) The NIH3T3 cell line was cultured in DMEM supplemented with 10% heat-inactivated donor bovine serum (Invitrogen), 2 mM glutamine, 100 U/ml penicillin and 100 μg/ml streptomycin.
(§2) The ΦNX ecotropic packaging cell line was transfected using standard Lipofectamine 2000 protocols. Viral supernatants were harvested 48 hours, post transfection, filtered and concentrated 10-fold using Amicon Ultra centrifugal filter device with a 100kDa cutoff. NIH 3T3 cells were incubated with concentrated retroviral supernatants supplemented with 4 μg/ml polybrene for 4 hours at 37° C. Cells were washed once with PBS and cultured in growth media for 24-36 hours to allow for viral integration.
(§3) The transduced NIH3T3 cells were subjected to analysis using fluorescence-activated cell sorting (FACS) to screen the libraries of PDE5A mutants. 24 hours prior to analysis, transduced NIH3T3 cells were plated at 1×10^5 cells per well of a 12-well plate. Cells were removed from the plate using PBS and 2 mM EDTA, washed once with PBS, and resuspended in 200 μL, PBS. FACS analysis was performed on instruments at the Stanford Shared FACS Facility with 10,000 events represented.
(§4) To identify destabilizing domains that are responsive to the PDE5A ligand, Sildenafil, a cell-based screening assay was employed in which the fluorescence of green fluorescent protein derived from Aequorea coerulescens (AcGFP) served as an indicator of PDE5A stability. A library based on the PDE5A catalytic domain sequences was generated using error prone PCR and then cloned in-frame in front of AcGFP. A Moloney murine leukemia retroviral expression was used to stably integrate this library of PDE5A-AcGFP fusions into NIH-3T3 fibroblasts, and the transduced cells were subjected to three rounds of sorting using flow cytometry. In the first round, cells were treated with 10 μM of PDE5A ligand, Sildenafil for 16-24 before analysis. Fluorescent cells were collected and further cultured in the absence of ligand for 60 hours.
(§5) A library of AcGFP-PDE5A fusions i.e., C-terminal PDE5A mutants was screened using the cell-based screening assay described previously to identify C-terminal destabilizing domains. […] Identified candidates were subjected to further characterization by FACS. Cells were split into two treatment groups and incubated with either Sildenafil (10 μM) or vehicle alone for 24 hours. Cells that were mock transduced or transduced with the wild-type PDE5A construct were also included in the analysis. The stabilization ratio was calculated as the fold change in GFP intensity of the AcGFP-PDE5A construct in Sildenafil treated sample compared to vehicle alone treated sample. The results are presented in Table 2 where the C terminal PDE5A mutants are denoted as PDE5AC.
Residue D764 was identified as a mutational hotspot from sequence analysis. PDE5AC (#41) was engineered with either D764N or D764G mutation via site-directed mutagenesis. PDE5AC (#41) +D764N comprises the amino acid sequence of SEQ ID NO. 53 (encoded by SEQ ID NO. 54) and PDE5AC (#41) +D764G comprises the amino acid sequence of SEQ ID NO. 55 (encoded by SEQ ID NO. 56). AcGFP-PDE5A variants were evaluated for Sildenafil dependent stabilization via FACS as described previously. Results from FACS analysis are presented in Table 4 where the C terminal PDE5A mutants are denoted as PDE5AC. The stabilization ratio was calculated as the fold change in GFP intensity of the AcGFP-PDE5A construct in Sildenafil treated sample compared to vehicle alone treated sample.
Extended versions of human PDE5A that included residues in addition to catalytic domain (residues 535-860 of SEQ ID NO. 1) with Q589R polymorphism (SEQ ID NO. 11) were evaluated for use as C-terminal destabilizing domains. Three extended PDE5A sequences were tested that consisted of residues 535-875 of SEQ ID NO. 1 with Q589R polymorphism (SEQ ID NO. 13); residues 466-875 of SEQ ID NO. 1 with Q589R polymorphism (SEQ ID NO. 15); or residues 420-875 of SEQ ID NO. […]

[2] = tested on: PDE5A-AcGFP fusions; experiment: FACS analysis of N-terminal PDE5A mutants (PDE5A-AcGFP fusions), Sildenafil vs vehicle; format: cell-based, mouse; settings: 24 hours; for Stabilization ratio: Sildenafil 20 μM vs vehicle alone; for Mean Fluorescence Intensity (MFI) Sildenafil (20 μM) / Mean Fluorescence Intensity (MFI) Vehicle control: NIH3T3; for Mean Fluorescence Intensity (MFI) Vehicle control: vehicle alone
Procedure: as §1, §2, §3, §4
as §5, with “PDE5A-AcGFP” for “AcGFP-PDE5A”, “N-terminal” for “C-terminal”, “mutants,” for “mutants”, “(20” for “(10”, “The results are presented in Table 6 where the N terminal PDE5A mutants are denoted as PDE5AN. The” for “The”, “sample.” for “sample. The results are presented in Table 2 where the C terminal PDE5A mutants are denoted as PDE5AC.”

[3] = molecular target: T1, HCT 116 cells transduced with the PDE5A DD derived GFP constructs (Homo sapiens, UniProt O76074, K633E/K795E/K852E/Q589R/T712S); experiment: Response to Tadalafil, GFP expression by FACS in HCT116; format: cell-based; settings: 48 hrs, HCT116
T1 construct: Mutations were created in PDE5A (535-860) catalytic domain using site directed mutagenesis; expressed in transfected cells; host or cells: HCT116 (lentiviral transduction, pELNS vector, sorted on mCherry)
In short: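 HCT116 cells stably transduced (mCherry-sorted) with lentiviral PDE5A DD–AcGFP constructs, exposed to DMSO or Tadalafil 0.01–100 μM for 48 hrs. GFP mean fluorescence by FACS; stabilization ratio = ligand vs no-ligand signal, basal expression = no-ligand signal vs parental autofluorescence.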

[4] = Sildenafil (10 μM) −, vehicle alone

Substance | Mean Fluorescence intensity ([1]; Sildenafil (10 μM) +) | Mean Fluorescence intensity [1, 4] | Stabilization ratio [1] | Stabilization ratio [2] | Mean Fluorescence Intensity (MFI) Sildenafil (20 μM) [2] | Mean Fluorescence Intensity (MFI) Vehicle control [2] | Tadalafil concentrations at which stabilization ratios greater than 1 were obtained [3]
PDE5AC (#13): AcGFP fused to C-terminal DD 535-860 of PDE5A (Q589R, Y676D, L738H), SEQ ID NO. 24 | 6284 | 1076 | 5.8 | – | – | – | –
PDE5AC (#25): AcGFP fused to C-terminal DD 535-860 of PDE5A (Q541R, F559L, Q589R, H678R, I824T), SEQ ID NO. 35 | 2340 | 1452 | 1.6 | – | – | – | –
PDE5AC (#28): AcGFP fused to C-terminal DD 535-860 of PDE5A (Q589R, K591E, N609H, D764V), SEQ ID NO. 25 | 6055 | 1382 | 4.4 | – | – | – | –
PDE5AC (#43): AcGFP fused to C-terminal DD 535-860 of PDE5A (Q589R, N609H, Y676N, A762S), SEQ ID NO. 29 | 5518 | 1017 | 5.4 | – | – | – | –
PDE5AC (#69): AcGFP fused to C-terminal DD 535-860 of PDE5A (Q589R, N636S, D687A, D764N, S815C), SEQ ID NO. 30 | 6365 | 1126 | 5.6 | – | – | – | –
PDE5AN (#3): N-terminal DD 535-860 of PDE5A (Q589R, K633E, T712S, K852E, K795E), SEQ ID NO. 66, fused to AcGFP | – | – | – | 3.97 | 3335 | 839 | greater than 0.41 μM
PDE5AN (#53): N-terminal DD 535-860 of PDE5A (E536G, Q589R, C839S), SEQ ID NO. 67, fused to AcGFP | – | – | – | 2.62 | 4440 | 1697 | –
